We go through one molecule from patent US20150335678A1, “METHOD OF ACTIVATING STEM CELLS IN AN ANIMAL AND THE USE OF CHLORINE DIOXIDE FOR PREPARING MEDICINES FOR ACTIVATING STEM CELLS IN AN ANIMAL” (priority 2012, published 2015).

In series [1] the test system is rat model of type II diabetes mellitus. The series can be described thus: Fasting blood-glucose in rat model of type II diabetes mellitus (Example 10). In kind it is in vivo. The method, then: The rat models of type II diabetes mellitus bought from Department of Medicine of Peking University were divided into group A and B randomly with 10 rats for each group. Group A was treatment group of activating agent of stem cells. Group B was control group of 0.9% sodium chloride of the same volume. The rats of group A were injected with 0.5 ml activating agent of stem cells at insulin injection site on day 0, same dosage of medicine were injected on day 7, day 14; The rats of group B were injected with 0.5 ml NS at hepatic artery at the same point-in-time, then calculate the blood sugar. The fasting blood-glucose of the rat model was checked on day 7, day 14, day 21 and day 28 respectively after the last injection. Table 20 is the results.

The subject of series [2] is postoperative complications of lung cancer. The series can be described thus: Postoperative complications of lung cancer (Example 12). In kind it is in vivo, human. To be noted: 15 patients. Here is the method: The subjects consisted of 30 lung cancer patients of stage I, II III who had operations on lung cancer just now. The subjects were randomly assigned to treatment group and control group with 15 patients respectively.
[…] acid aqueous solution with a ph value of 3 was made by citric acid and deionized water. 500 ml aqueous solution of 30% was made with deionized water and sodium chlorite, 500 ml aqueous solution of 50% was made with deionized water and citric acid. To mix the above solutions in a conical beaker of 2 L capacity and then put them in the prepared acid aqueous solution by a plastic tube with bottle stopper. The activating agent of stem cells comprising chlorine dioxide was made by bubbling chlorine dioxide in the acid aqueous solution for 40 minutes and the solution was contained in 150 plastic bottles with 100 ml capacity and stored in the fridge.
Each patient in treatment group received 10 bottles of the solution. Open the plastic bottle cap and do alternate nostril breathing for 2-10 minutes on day 2 after the operation with a bottle a day for three times, then cover the bottleneck once finished. No special nursing means were applied in control group, then observe the complications a month after the operation.

Series [3] concerns nestin-positive cells (neural stem cells). The series can be described thus: Nestin-positive cells in the SVZ region, immunohistochemical stain. It is filed as in vivo, Sprague-Dawley rats. To be noted: for number of nestin-positive cells in the SVZ region (mean±SD): diluted solution via carotid artery once a day, ten days. The method, then: Male Sprague-Dawley rats with the age of 12 weeks and weight of 250^˜280 g were used in the experiment after acclimating for a week.
A middle cerebral artery occlusion model was first established in compliance with the method of Longa E Z et al. (Longa E Z, et al. Reversible middle cerebral artery occlusion without craniectomy in rats. Stroke 20:84-91, 1989). More specifically, 0.36 g/kg of 10% chloral hydrate was administered intraperitoneally to rats which had been fasted for 12 hours (although given free access to water) to anesthetize the rats. Next, a midline incision was made in the neck to expose the right common carotid artery. Then, the internal carotid artery and external carotid artery were separated, the posterior carotid artery, which is a branch of the external carotid artery, and the thyroidea arteria were coagulated and severed, the external carotid artery was ligated at the branch of the lingual artery and maxillary artery, a small puncture was formed in the external carotid artery, 4-0 Nylon suture was passed through the common carotid artery from the puncture, and gradually inserted into the internal carotid artery until there was resistance. The length of the Nylon suture was about 18^˜20 mm from the branch of the common carotid artery. As a result of occluding the middle cerebral artery with Nylon suture, an ischemic state was applied for 2 hours to create a middle cerebral artery occlusion model.
A cerebral ischemia/reperfusion injury model was established by removing the Nylon suture from the middle cerebral artery of the occlusion model and following reperfusion of blood.
The first solution was a mixed solution made of sodium chlorite with the concentration of 7.47% and sodium chloride with the concentration of 1.59% with deionized water; the second solution was made of citric acid with the concentration of 16.7% with deionized water. Same volume of solutions were taken out from different vessels with different volumes and mixed up. Allow the solution to mix for 3-5 minutes and dilute it five times with normal saline, and then filter it with 0.22 μm filter membrane of double-deck. The solution was immediately put into injector. The solution was prepared once being used.
Treatment group (120 rats): A cerebral ischemia/reperfusion injury model was established for the rats already. To administer chlorine dioxide solution everytime that prepared from procedure (3) through carotid artery after the second day the model has established, once a day for total ten days.
Ten rats of each group were autopsied on day 7, 14 and 21 after the model established, respectively (total animals are 30 rats from each group). After preparation of tissue specimens, the neural stem cells were counted under a microscope.
More specifically, rat frozen brain sections were prepared on day 7, 14 and 21 after the model established, and the presence of nestin-positive cells in the subventricular zone (SVZ) was measured by immunohistochemical stain using the marker of nestin expressed on the neural stem cells. The presence of nestin-positive cells was analyzed using mouse anti-rat nestin monoclonal antibody.
BRt(%)=(Bt−St)/(Mt−St)×100

With `[O][Cl+][O-]` [chlorine dioxide solution, chlorine dioxide], the “MBG (fasting blood-glucose), ±SD” value was determined as 9.3 ± 3.5 mmol/L in series [1] (Day 7 after administration, Group A n=10, Day 0 17.3 ± 0.4, NS group 18.3 ± 2.4, NaClO2 4%/NaCl 1% + citric acid 8% 1:1, 0.5 ml injected day 0, 7, 14); 4.3 ± 1.1 mmol/L in series [1] (Day 14 after administration, Day 0 17.3 ± 0.4, NS group 17.2 ± 1.6, 0.5 ml injected day 0, 7, 14); 3.1 ± 1.2 mmol/L in series [1] (Day 28 after administration, Day 0 17.3 ± 0.4, NS group 17.9 ± 2.3, 0.5 ml injected day 0, 7, 14); 3.5 ± 1.3 mmol/L in series [1] (rat, in vivo). In addition, the “FBG levels of rats in treatment group” value in series [1] (control group remains unchanged) is recorded as “become normal after 14 days”. In series [1] (rat model of type II diabetes mellitus), the side effects entry was “few or no side effects”. The “Serious complications (No.)” value in series [2] (a month after lung cancer operation, ClO2 gas bubbled into pH 3 citric acid solution, nostril breathing 2-10 minutes three times a day, 10 bottles, control 4 (26.7%)) was 1. Moreover, the “No complication (No.)” value in series [2] (a month after operation, inhalation, control 5 (33.3%)) is given as 9. The “Minor complications (No.)” value in series [2] (a month after operation, inhalation, control 6 (40%)) came to 5. Moreover, in series [2] (a month after operation, inhalation, control 26.7%), the “Serious complications (%)” value was 6.7%. Also, the “No complication (%)” value in series [2] (a month after operation, inhalation, control 33.3%) came out at 60%. The “Minor complications (%)” value in series [2] (a month after operation, inhalation, control 40%) stood at 33.3%. Besides, the figures for the “BRt: nestin-positive cells in treatment group relative to model group = 100%, (Bt-St)/(Mt-St)x100” value in series [3] (Day 7), in series [3] (Day 14) and in series [3] (Day 21) were 157.4%, 150.2% and 138.5%, respectively. Further, the “number of nestin-positive cells in the SVZ region (mean±SD)” value in series [3] (Day 7 after model established, model group 210.5 ± 22.3, sham 45.6 ± 5.69) is recorded as 305.2 ± 30.6 No. cells/mm2; in series [3] (Day 14, model group 74.5 ± 13.4, sham 13.2 ± 1.64) it was 105.3 ± 15.4 No. cells/mm2; in series [3] (Day 21, model group 46.2 ± 6.31, sham 1.99 ± 1.09) it was 63.2 ± 7.55 No. cells/mm2.
